Data from patent US6582734B1, “Antimicrobial composition useful for the treatment of bovine mastitis” (Ecolab Inc., priority 2000, dated 2003).

Experiments:
S. aureus = experiment: Effect of various acids on antimicrobial activity of the base solution (no chlorine dioxide), S. aureus; format: cell-based, Staphylococcus aureus; settings: used alone at 1%
Method: (§1) The effect of various acids on the antimicrobial activity of the base solution was measured. No chlorine dioxide was added to the compositions. Acids were added to each sample at a concentration of 1%. Example 4 had 1% heptanoic acid and Comparative Example D had 1% lactic acid. Examples 5 and 6 utilized blends of acids. The antimicrobial activity of each was measured and compared in the following Table III.

E. coli = experiment: Effect of various acids on antimicrobial activity of the base solution (no chlorine dioxide), E. coli; format: cell-based, Escherichia coli; settings: used alone at 1%
Method: as §1

[1] = tested on: Staphylococcus aureus (ATCC 6538); experiment: Antimicrobial effect of ClO2 compositions with/without heptanoic acid, S. aureus; format: cell-based; settings: no secondary antimicrobial fatty acid added
Method: (§2) This experiment was used to determine what affect the addition of a fatty acid, the secondary antimicrobial agent, had on the effectiveness of the compositions in killing E. Coli and S. Aureus. The secondary fatty acid used was heptanoic acid at a level of 1% in examples 1, 2 and 3. The comparative examples, A, B and C, contained no fatty acid.
(§3) Three compositions were prepared from each base solution. Sodium chlorite was added in amounts that were sufficient to form compositions having 200 ppm, 300 ppm and 400 ppm ClO2. Six compositions were prepared in all.
(§4) The compositions were then tested for the antimicrobial effect against Staphylococcus aureus and Escherichia coli. The inoculum numbers in CFU/mL were 1.1×10^7 (ATCC 6538) and 1.0×10^8 (ATCC 11229). The test temperature was 25° C. and the solution pH was 5.5. The following Table II illustrates the results obtained.

[2] = tested on: Escherichia coli (ATCC 11229); experiment: Antimicrobial effect of ClO2 compositions with/without heptanoic acid, E. coli; format: cell-based; settings: no secondary antimicrobial fatty acid added
Method: as §2, §3, §4

| SMILES | effect against the microbes (S. aureus), in words (S. aureus) | effect against the microbes (E. coli), in words (E. coli) | concentration level of chlorine dioxide that provided an effective antimicrobial kill of S. Aureus [1] | concentration level of chlorine dioxide that provided an effective antimicrobial kill of E. Coli [2] |
| --- | --- | --- | --- | --- |
| CC(O)C(=O)O (stereo not shown) [lactic acid] | does not have much of any effect | does not have much of any effect | – | – |
| [O][Cl+][O-] [chlorine dioxide] | – | – | 300 ppm | 300 ppm |
